Laboratory results from article PMC4710668, “Bioactivation of food genotoxicants 5-hydroxymethylfurfural and furfuryl alcohol by sulfotransferases from human, mouse and rat: a comparative study” (Archives of Toxicology, 2014).

Tests used:
[1] = test system: mSult2a3; experiment: FFA sulfoconjugation assay (N6-MF-A formation with adenosine as scavenger); assay type: biochemical, mouse
Procedure: (§1) Cytosolic fractions containing individual SULT forms were prepared from transgenic S. typhimurium TA1538. Table S1 in the Supplementary Material provides a summary of the thirty SULTs used in the current study together with references describing the cloning of the respective S. typhimurium TA1538 strains. The expressed SULT forms are denoted with the prefixes h, m and r for human, mouse and rat enzymes, respectively. Bacteria were grown in Luria Broth medium containing ampicillin (100 µg/ml) by stirring for 8 h at 200 revolutions/min at 37 °C. The bacterial suspensions were centrifuged at 5,000 g for 10 min. The sediments were washed twice with 25 ml of 10 mM potassium phosphate buffer (pH 7.4)/50 mM potassium chloride (KCP buffer) and centrifuged again. The pellets were taken up in 800 µl KCP buffer and sonicated thrice for 15 s with 30 s pauses in between. The soluble fraction was attained by centrifuging for 1 h at 100,000 g. The supernatants (in the following termed cytosolic preparations) were frozen at −80 °C. The protein concentrations were determined according to a bicinchoninic acid (BCA) assay protocol. The SULT concentrations in the cytosolic preparations were estimated after electrophoretic separation and immunodetection using inclusion bodies of different SULT forms as standards (Teubner et al. [2007]). The preparation of SULT inclusion bodies and the immunodetection of SULTs is described in the Supplementary Material, which also contains a representative immunoblot of different amounts of rSult1a1standard and a cytosolic preparation of S. typhimurium expressing rSult1a1 (Fig. S1).
The reaction mixtures were prepared as described for HMF. In addition, they contained 10 mM adenosine as a nucleophilic scavenger. Following incubation for 20 min at 37 °C, sulfoconjugation reactions were stopped by adding 100 µl cold methanol containing 175 fmol of [^15N5]N ^6-MF-A as the internal standard, mixed and centrifuged at 15,000 g for 10 min. The clear supernatants were subjected to UPLC-MS/MS analyses. Incubations were performed as quadruplicates. At higher concentrations, FFA reacts spontaneously with adenosine at low, but detectable, levels. To correct for the SULT-independent adduct formation, mixtures with SULT-deficient cytosols were carried along simultaneously in duplicate. Controls were subtracted from the experimental samples.
The ribonucleoside adduct N ^6-((furan-2-yl)methyl)-adenosine (N ^6-MF-A) was analyzed by isotope-dilution UPLC-MS/MS with the same system described above using a HSS T3 column (1.8 µm, 2.1 × 100 mm, Waters). Samples of 8 µl were eluted with 10 mM ammonium bicarbonate buffer, pH 8.0 (A) and methanol (B) using an 6-min gradient from 98 % solvent A to 15 % solvent A at 0.35 ml/min flow rate (Yin et al. [2013]). The electrospray interface of the mass spectrometer operated in the positive ion mode. The fragmentations of N ^6-MF-A into the aglycone cation [N ^6-((furan-2-yl)methyl)-adenine-H]^+ (m/z = 348.1 → 216.1), the cleavage of the 2-methylfuranyl cation (m/z = 348.1 → 81.0) and the release of [N ^6-methyl-adenine-H]^+ (m/z = 348.1 → 148.0) were monitored together with the corresponding fragmentations of the isotope-labeled internal standard [^15N5]N ^6-MF-A for the formation of the aglycone (m/z = 353.1 → 221.1), the 2-methylfuran cation (m/z = 353.1 → 81.0) and ^15N5-labeled N ^6-methyl-adenine (m/z = 353.1 → 153.0). The N ^6-MF-A content of the incubation mixture was calculated from the ratio of peak areas resulting from the total ion current of all three MRM signals of the analyte. For the fragmentation of N ^6-MF-A ([^15N5]N ^6-MF-A), collision energies were 20, 25 and 35 eV for the transitions m/z = 348.1 → 216.1 (m/z = 353.1 → 221.1), m/z = 348.1 → 148.0 (m/z = 353.1 → 153.0) and m/z = 348.1 → 81.0 (m/z = 353.1 → 81.0), respectively. […]

[2] = test system: mSult5a1; experiment: HMF sulfoconjugation assay; assay type: biochemical, mouse
Procedure: as §1
(§2) The reactions were conducted in mixtures of 100 µl containing 25–200 µg protein, 50 mM potassium phosphate buffer (pH 7.4), 5 mM MgCl2, 50 µM PAPS and different concentrations of HMF at 37 °C. Preliminary experiments ensured that measurements were recorded under ‘linear’ conditions, i.e., doubling of protein concentration or incubation time was doubling the amount of sulfate ester formed. The reactions were stopped after 30 min by adding 300 µl ice-cold 2-propanol, mixed and centrifuged at 15,000 g for 10 min.
(§3) SMF concentrations of the clear supernatants were analyzed by UPLC-MS/MS. The protocol was adapted from the quantification of SMF in plasma samples of HMF-treated mice (Monien et al. [2009]). In short, the supernatants were analyzed using a UPLC system (Waters) connected to a Quattro Premier XE tandem quadrupole mass spectrometer (Waters) using the negative electrospray ionization mode. Samples of 4 µl were injected into a HSS T3 column (1.8 µm, 2.1 × 100 mm; Waters) and eluted with an isocratic flow of 0.35 ml/min 10 mM ammonium acetate/methanol (95:5). The fragmentation reactions of SMF yielding two principal ions, the sulfate ion radical (m/z = 204.9 → 96.0) and the protonated sulfonate ion (m/z = 204.9 → 81.0) were monitored. The tune parameters were as follows: temperature of the electrospray source 120 °C; desolvation temperature 475 °C; desolvation gas nitrogen (800 l/h); cone gas nitrogen (100 l/h); collision gas argon (indicated cell pressure ~5 × 10^−3 mbar). For the fragmentation of SMF, collision energies were 20 and 23 eV for the transitions m/z = 204.9 → 81.0 and m/z = 204.9 → 96.0, respectively. The dwell time was set to 100 ms, and capillary voltage was set to 0.35 kV. The cone and RF1 lens voltages were 32 and 0.2 V, respectively. SMF was quantified using an external calibration line that was linear in the concentration range of 1.0 nM (4 fmol/injection) to 2,500 (10 pmol/injection) SMF (r ^2 ≥ 0.99). Data acquisition and handling were performed with MassLynx 4.1 software (Waters). The limit of detection (LOD) for this technique of 2.5 nM SMF has been reported (Monien et al. [2009]). In the current study, this corresponds to 10 fmol SMF per injection or a reaction rate of 0.5 pmol SMF/mg/min.

[3] = test system: mSult2a3; experiment: HMF sulfoconjugation assay; assay type: biochemical, mouse
Procedure: as §1, §2, §3

[4] = test system: female B6C3F1 mice; design: method as in National Toxicology Program [2008]; conditions: oral 188 mg HMF/kg for 104 weeks, ref National Toxicology Program [2008]; cited from earlier work

SMILES	Rate of N6-MF-A formation ([1]; 0.1 mM FFA)	Rate of N6-MF-A formation ([1]; 1 mM FFA)	Rate of N6-MF-A formation ([1]; 10 mM FFA)	Rate of sulfoconjugation ([2]; 0.1 mM HMF)	Rate of sulfoconjugation ([2]; 1 mM HMF)	Rate of sulfoconjugation ([2]; 10 mM HMF)	Rate of sulfoconjugation ([2]; 100 mM HMF)	Rate of sulfoconjugation ([3]; 0.1 mM HMF)	Rate of sulfoconjugation ([3]; 1 mM HMF)	Rate of sulfoconjugation ([3]; 10 mM HMF)	Rate of sulfoconjugation ([3]; 100 mM HMF)	carcinogenic effect [4]
OCc1ccco1 [FFA, furfuryl alcohol]	<18 fmol N ^6-MF-A/mg/min	<20 fmol N ^6-MF-A/mg/min	<44 fmol N ^6-MF-A/mg/min									
O=Cc1ccc(CO)o1 [HMF, 5-Hydroxymethylfurfural]				<0.5 pmol/mg/min	<0.5 pmol/mg/min	<0.5 pmol/mg/min	<0.5 pmol/mg/min	<0.5 pmol/mg/min	<0.5 pmol/mg/min	<0.5 pmol/mg/min	<0.5 pmol/mg/min	increased incidences of hepatocellular adenomas
